Blank lines part the entries; values can stand above or below the compound they belong to. Calls of active or inactive are those of the source. No cut-off for these calls is given here.
Tests used:
[1] = Half life in CD rat at 1 mg/kg, iv; assay type: ADME, organism-based; parameters: dose 1 mg/kg, route intravenous; conditions: in vivo
[2] = Chromatographic hydrophobicity index, log D of the compound at pH 7.4; assay type: physicochemical; conditions: buffer
Rattus norvegicus [3] = assay: Lymphopenic activity in Lewis rat assessed as reduction in blood lymphocyte counts at 1 mg/kg, po; assay type: functional; parameters: scale not given: the % may be the effect or the level left
[4] = biological target: T1, Sphingosine 1-phosphate receptor 3 (Homo sapiens, UniProt Q99500); assay: Agonist activity at human S1P3 receptor expressed in RBL cells assessed as [35S]GTPgammaS binding after 3 hrs by radiometric assay; assay type: functional, cell-based
T1 sequence (Q99500 whole entry): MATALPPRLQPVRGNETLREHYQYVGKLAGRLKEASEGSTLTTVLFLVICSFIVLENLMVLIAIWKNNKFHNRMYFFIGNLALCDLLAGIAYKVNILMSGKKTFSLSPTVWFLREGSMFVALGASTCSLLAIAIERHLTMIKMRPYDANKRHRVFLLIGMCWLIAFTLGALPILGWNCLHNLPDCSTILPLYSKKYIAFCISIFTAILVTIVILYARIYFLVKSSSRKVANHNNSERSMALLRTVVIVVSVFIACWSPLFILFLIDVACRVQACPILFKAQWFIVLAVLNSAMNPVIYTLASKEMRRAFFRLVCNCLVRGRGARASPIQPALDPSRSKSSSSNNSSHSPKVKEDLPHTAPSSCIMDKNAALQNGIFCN

[5] = Dissociation constant, pKa of the compound; assay type: physicochemical
[6] = Blood clearance in CD rat at 1 mg/kg, iv; assay type: ADME, organism-based; parameters: dose 1 mg/kg, route intravenous
[7] = Volume of distribution at steady state in CD rat at 1 mg/kg, iv; assay type: ADME, organism-based; parameters: dose 1 mg/kg, route intravenous; conditions: in vivo, read-out: Vdss
[8] = Oral bioavailability in CD rat at 3 mg/kg; assay type: ADME, organism-based; conditions: in vivo
[9] = biological target: Voltage-gated inwardly rectifying potassium channel KCNH2 (Homo sapiens, UniProt Q12809)
Sequence of Voltage-gated inwardly rectifying potassium channel KCNH2 (Q12809 whole entry): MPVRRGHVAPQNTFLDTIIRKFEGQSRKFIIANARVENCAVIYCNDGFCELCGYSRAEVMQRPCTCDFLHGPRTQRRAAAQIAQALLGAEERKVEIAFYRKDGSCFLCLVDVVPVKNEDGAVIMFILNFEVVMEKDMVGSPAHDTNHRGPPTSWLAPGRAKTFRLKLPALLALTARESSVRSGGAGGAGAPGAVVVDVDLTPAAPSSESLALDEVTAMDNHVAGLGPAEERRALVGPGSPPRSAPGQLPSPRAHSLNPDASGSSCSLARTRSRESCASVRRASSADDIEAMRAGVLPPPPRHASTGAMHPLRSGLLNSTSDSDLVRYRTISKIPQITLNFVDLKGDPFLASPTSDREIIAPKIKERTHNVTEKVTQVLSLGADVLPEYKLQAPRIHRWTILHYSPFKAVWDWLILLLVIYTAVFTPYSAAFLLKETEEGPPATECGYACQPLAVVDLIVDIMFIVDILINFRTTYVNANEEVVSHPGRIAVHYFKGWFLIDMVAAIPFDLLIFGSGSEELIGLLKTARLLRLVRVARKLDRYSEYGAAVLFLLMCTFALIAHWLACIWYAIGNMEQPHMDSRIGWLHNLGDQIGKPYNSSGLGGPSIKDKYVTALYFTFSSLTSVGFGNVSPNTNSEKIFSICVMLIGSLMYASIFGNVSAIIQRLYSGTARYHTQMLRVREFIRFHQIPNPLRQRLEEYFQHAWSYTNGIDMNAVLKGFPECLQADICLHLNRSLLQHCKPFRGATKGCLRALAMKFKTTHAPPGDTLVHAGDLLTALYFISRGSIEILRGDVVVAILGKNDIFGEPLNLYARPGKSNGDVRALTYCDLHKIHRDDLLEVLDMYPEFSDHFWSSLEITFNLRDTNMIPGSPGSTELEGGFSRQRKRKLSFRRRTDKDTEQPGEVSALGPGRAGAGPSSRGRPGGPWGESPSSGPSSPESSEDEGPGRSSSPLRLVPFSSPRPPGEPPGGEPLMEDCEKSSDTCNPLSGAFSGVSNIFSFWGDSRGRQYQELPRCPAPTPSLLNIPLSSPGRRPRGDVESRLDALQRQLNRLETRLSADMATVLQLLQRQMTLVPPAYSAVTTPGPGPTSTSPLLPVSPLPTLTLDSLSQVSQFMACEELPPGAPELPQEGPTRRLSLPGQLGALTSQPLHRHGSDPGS

[10] = biological target: T2, Sphingosine 1-phosphate receptor 1 (Homo sapiens, UniProt P21453); assay: Agonist activity at human S1P1 receptor expressed in CHO-K1 EDG1 cells expressing beta-arrestin 2 after 105 mins by chemi-luminescence assay; assay type: functional, cell-based
T2 sequence (P21453 whole entry): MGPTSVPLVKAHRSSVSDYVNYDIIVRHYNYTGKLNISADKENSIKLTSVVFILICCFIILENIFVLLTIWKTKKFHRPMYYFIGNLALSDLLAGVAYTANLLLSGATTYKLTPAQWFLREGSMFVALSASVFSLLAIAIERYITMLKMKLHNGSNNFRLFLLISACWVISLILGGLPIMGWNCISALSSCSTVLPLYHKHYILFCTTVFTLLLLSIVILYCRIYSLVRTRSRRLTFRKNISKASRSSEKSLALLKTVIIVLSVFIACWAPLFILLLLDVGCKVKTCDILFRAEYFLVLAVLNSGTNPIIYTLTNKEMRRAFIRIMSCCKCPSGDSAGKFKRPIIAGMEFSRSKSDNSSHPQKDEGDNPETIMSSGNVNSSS

[11] = biological target: T2, Sphingosine 1-phosphate receptor 1; assay: Agonist activity at human S1P1 receptor expressed in CHO-K1 EDG1 cells expressing beta-arrestin 2 after 105 mins by chemi-luminescence assay relative to control; assay type: functional, cell-based
[12] = biological target: T1, Sphingosine 1-phosphate receptor 3; assay: Agonist activity at human S1P3 receptor expressed in RBL cells assessed as [35S]GTPgammaS binding after 3 hrs by radiometric assay relative to control; assay type: functional, cell-based
[13] = biological target: T3, Sphingosine 1-phosphate receptor 4 (Homo sapiens, UniProt O95977); assay: Agonist activity at human S1P4 expressed in CHO-K1 aequorin cells assessed as calcium accumulation of by luminescence assay in presence of cofactor coelenterazine; assay type: functional, cell-based
T3 sequence (O95977 whole entry): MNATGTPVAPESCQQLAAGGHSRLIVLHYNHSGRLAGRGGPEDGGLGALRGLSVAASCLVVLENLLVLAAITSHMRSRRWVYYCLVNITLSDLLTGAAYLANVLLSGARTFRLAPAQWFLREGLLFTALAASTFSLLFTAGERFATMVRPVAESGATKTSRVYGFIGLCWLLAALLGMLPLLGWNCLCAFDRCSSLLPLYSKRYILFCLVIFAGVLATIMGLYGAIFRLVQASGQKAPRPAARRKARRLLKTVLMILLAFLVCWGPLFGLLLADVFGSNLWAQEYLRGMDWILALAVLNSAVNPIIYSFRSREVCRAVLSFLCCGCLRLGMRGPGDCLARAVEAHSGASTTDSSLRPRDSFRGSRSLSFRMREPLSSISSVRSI

[14] = biological target: T4, Sphingosine 1-phosphate receptor 5 (Homo sapiens, UniProt Q9H228); assay: Agonist activity at human S1P5 receptor expressed in CHO-K1 aequorin cells assessed as calcium accumulation of by luminescence assay in presence of cofactor coelenterazine relative to control; assay type: functional, cell-based
T4 sequence (Q9H228 whole entry): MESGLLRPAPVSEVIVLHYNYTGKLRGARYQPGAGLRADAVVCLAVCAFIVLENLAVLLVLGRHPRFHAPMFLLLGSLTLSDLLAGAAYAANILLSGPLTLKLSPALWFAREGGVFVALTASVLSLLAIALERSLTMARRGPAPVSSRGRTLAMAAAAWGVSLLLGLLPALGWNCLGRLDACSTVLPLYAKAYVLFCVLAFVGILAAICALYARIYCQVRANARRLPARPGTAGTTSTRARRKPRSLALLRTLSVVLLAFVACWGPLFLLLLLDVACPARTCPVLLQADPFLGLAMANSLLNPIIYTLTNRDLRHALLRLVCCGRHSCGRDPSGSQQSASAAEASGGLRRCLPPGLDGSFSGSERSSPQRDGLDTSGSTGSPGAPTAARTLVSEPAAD

[15] = biological target: T5, Sphingosine 1-phosphate receptor 4 (Homo sapiens) (UniProt O95977); assay: Agonist activity at human S1P4 expressed in CHO-K1 aequorin cells assessed as calcium accumulation of by luminescence assay in presence of cofactor coelenterazine relative to control; assay type: functional, cell-based
T5 sequence (whole entry): T3 sequence (O95977 whole entry)

Plasma = assay: Fraction unbound in CD rat plasma; assay type: ADME, cell-free
[16] = Chromatographic hydrophobicity index, log D of the compound at pH 10.5; assay type: physicochemical; conditions: buffer
[17] = Plasma protein binding in CD rat at 1 mg/kg, iv; assay type: ADME, organism-based; parameters: dose 1 mg/kg, route intravenous; conditions: read-out: PPB
[18] = Chromatographic hydrophobicity index, log D of the compound at pH 2.0; assay type: physicochemical; conditions: buffer
[19] = biological target: T4, Sphingosine 1-phosphate receptor 5; assay: Agonist activity at human S1P5 receptor expressed in CHO-K1 aequorin cells assessed as calcium accumulation of by luminescence assay in presence of cofactor coelenterazine; assay type: functional, cell-based
[20] = Intrinsic clearance in dog hepatocytes; assay type: ADME, cell-based, Canis lupus familiaris, Liver, Hepatocyte
[21] = Volume of distribution at steady state in Beagle dog at 1 mg/kg, iv; assay type: ADME, organism-based, Canis lupus familiaris; parameters: dose 1 mg/kg, route intravenous; conditions: in vivo, read-out: Vdss
Hepatocyte [22] = assay: Intrinsic clearance in human hepatocytes; assay type: ADME, cell-based, Liver
Cytochrome P450 2C19 = Cytochrome P450 2C19 (Homo sapiens, UniProt P33261); assay: Inhibition of CYP2C19; assay type: ADME
Sequence of Cytochrome P450 2C19 (P33261 whole entry): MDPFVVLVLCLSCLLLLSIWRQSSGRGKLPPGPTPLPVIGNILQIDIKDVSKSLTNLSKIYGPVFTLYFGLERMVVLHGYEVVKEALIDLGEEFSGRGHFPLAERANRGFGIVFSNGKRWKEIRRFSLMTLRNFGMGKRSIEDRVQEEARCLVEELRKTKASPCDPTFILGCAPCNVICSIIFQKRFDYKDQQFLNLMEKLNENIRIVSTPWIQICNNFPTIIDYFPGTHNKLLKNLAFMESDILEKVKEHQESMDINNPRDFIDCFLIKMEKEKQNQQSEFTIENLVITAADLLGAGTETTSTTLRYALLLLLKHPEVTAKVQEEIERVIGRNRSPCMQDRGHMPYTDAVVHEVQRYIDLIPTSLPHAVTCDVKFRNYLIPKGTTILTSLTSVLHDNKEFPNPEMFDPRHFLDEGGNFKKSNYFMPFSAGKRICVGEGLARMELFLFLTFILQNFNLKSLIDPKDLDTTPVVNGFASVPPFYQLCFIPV

Hepatocyte [23] = assay: Intrinsic clearance in rat hepatocytes; assay type: ADME, cell-based, Liver
[24] = Blood clearance in Beagle dog at 1 mg/kg, iv; assay type: ADME, organism-based, Canis lupus familiaris; parameters: dose 1 mg/kg, route intravenous
[25] = Ratio of drug level in brain to blood in CD rat at 0.8 mg/kg/hr, iv measured up to 7 hrs; assay type: ADME, organism-based; parameters: route intravenous
Rattus norvegicus [26] = assay: Lymphopenic activity in Lewis rat assessed as reduction in blood lymphocyte counts at 0.3 mg/kg, po; assay type: functional, organism-based; parameters: dose 0.3 mg/kg
[27] = Oral bioavailability in CD rat at 1 mg/kg; assay type: ADME, organism-based; conditions: in vivo
Cytochrome P450 2D6 = Cytochrome P450 2D6 (Homo sapiens, UniProt P10635); assay: Inhibition of CYP2D6; assay type: ADME
[28] = Solubility of the compound in fed state simulated intestinal fluid; assay type: physicochemical; conditions: simulated gi fluid
Cytochrome P450 3A4 [29] = biological target: T6, Cytochrome P450 3A4 (Homo sapiens, UniProt P08684); assay: Inhibition of CYP3A4 using vivid red as substrate; assay type: ADME
T6 sequence (P08684 whole entry): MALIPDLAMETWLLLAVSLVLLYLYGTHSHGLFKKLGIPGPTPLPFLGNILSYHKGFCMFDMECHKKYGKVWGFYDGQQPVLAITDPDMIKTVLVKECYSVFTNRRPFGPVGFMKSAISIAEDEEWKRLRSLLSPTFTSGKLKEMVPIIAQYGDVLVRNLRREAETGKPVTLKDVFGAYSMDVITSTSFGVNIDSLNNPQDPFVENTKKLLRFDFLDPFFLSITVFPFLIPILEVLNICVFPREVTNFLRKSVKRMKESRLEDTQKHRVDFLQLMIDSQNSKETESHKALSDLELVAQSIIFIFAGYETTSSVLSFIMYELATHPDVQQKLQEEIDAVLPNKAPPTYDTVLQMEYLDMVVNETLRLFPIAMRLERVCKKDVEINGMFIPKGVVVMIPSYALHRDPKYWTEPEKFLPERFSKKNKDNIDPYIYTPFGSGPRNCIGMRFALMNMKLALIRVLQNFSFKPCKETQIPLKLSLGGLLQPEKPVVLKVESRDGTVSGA

hERG (KCNH2) = hERG (KCNH2) (Homo sapiens, UniProt Q12809); assay: Inhibition of human ERG at 30 uM
Sequence of hERG (KCNH2) (Q12809 whole entry): as the sequence (Q12809 whole entry) above

[30] = Half life in Beagle dog at 1 mg/kg, iv; assay type: ADME, organism-based, Canis lupus familiaris; parameters: dose 1 mg/kg, route intravenous; conditions: in vivo
[31] = Oral bioavailability in Beagle dog at 1 mg/kg; assay type: ADME, organism-based, Canis lupus familiaris; conditions: in vivo
Hepatocyte [32] = assay: Intrinsic clearance in mouse hepatocytes; assay type: ADME, cell-based, Liver
[33] = Intrinsic clearance in cynomolgus monkey hepatocytes; assay type: ADME, cell-based, Macaca fascicularis, Liver, Hepatocyte
Cytochrome P450 3A4 [34] = biological target: T6, Cytochrome P450 3A4; assay: Inhibition of CYP3A4 using vivid green as substrate; assay type: ADME
Cytochrome P450 2C9 = Cytochrome P450 2C9 (Homo sapiens, UniProt P11712); assay: Inhibition of CYP2C9; assay type: ADME
[35] = biological target: T7, Sphingosine 1-phosphate receptor 2 (Homo sapiens, UniProt O95136); assay: Agonist activity at human S1P2 receptor expressed in yeast MMY24 assessed as conversion of FDGlu to fluorescein after 24 hrs relative to control; assay type: functional
T7 sequence (O95136 whole entry): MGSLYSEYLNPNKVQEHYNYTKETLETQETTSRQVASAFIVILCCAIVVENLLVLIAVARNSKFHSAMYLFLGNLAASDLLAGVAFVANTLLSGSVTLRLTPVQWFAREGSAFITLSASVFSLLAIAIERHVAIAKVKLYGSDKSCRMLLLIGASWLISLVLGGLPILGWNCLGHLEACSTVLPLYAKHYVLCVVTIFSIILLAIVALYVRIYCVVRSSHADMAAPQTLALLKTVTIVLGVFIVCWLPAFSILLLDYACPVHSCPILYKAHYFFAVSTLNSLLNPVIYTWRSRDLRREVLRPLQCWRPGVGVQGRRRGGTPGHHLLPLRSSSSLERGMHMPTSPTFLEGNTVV

[36] = biological target: T7, Sphingosine 1-phosphate receptor 2; assay: Agonist activity at human S1P2 receptor expressed in yeast MMY24 assessed as conversion of FDGlu to fluorescein after 24 hrs; assay type: functional
[37] = system: MDR1 (P-glycoprotein), human; assay: Efflux ratio of permeability in dog MDCK2 cells expressing human MDR1; assay type: ADME, cell-based, Canis lupus familiaris, MDCK-II; conditions: MDCK-MDR1
Rattus norvegicus [38] = assay: Metabolic stability of the compound in Lewis rat at 1 mg/kg, po; assay type: ADME, organism-based; parameters: dose 1 mg/kg, route oral; conditions: in vivo
[39] = Bioavailability in CD rat at 1 mg/kg, […]; assay type: ADME, organism-based; conditions: in vivo

half-life [1]: 2.1 h
chromatographic logD [2]: 2
EC50 [4]: > 100 µM
pKa [5]: 6.22
clearance [6]: 21 mL/min/kg
Vd [7]: 3.3 L/kg
bioavailability [8]: 37%
EC50 [10]: 0.02 µM
Structure (SMILES): Cc1c(-c2noc(-c3ccc(OC(C)C)c(C#N)c3)n2)cnc2c1CCN(C(CO)CO)C2
Activity (Rattus norvegicus [3]): 70%
IC50 [9]: 12.6 µM

EC50 [19]: 0.02 µM
half-life [1]: 1 h
CL [20]: 30 mL/min/g
chromatographic logD [2]: 2.64
Vd [21]: 7 L/kg
CL (Hepatocyte [22]): 2 mL/min/g
IC50 (Cytochrome P450 2C19): > 50 µM
EC50 [4]: > 31.6 µM
CL (Hepatocyte [23]): 3 mL/min/g
clearance [24]: 29 mL/min/kg
Kp at 7 h [25]: 1.87
pKa [5]: 7.3
bioavailability [27]: 52%
IC50 (Cytochrome P450 2D6): > 50 µM
clearance [6]: 60 mL/min/kg
solubility [28]: > 1 µg/mL
IC50 (Cytochrome P450 3A4 [29]): 15.3 µM
half-life [30]: 3 h
bioavailability [31]: 45%
CL (Hepatocyte [32]): 1.3 mL/min/g
Vd [7]: 4.1 L/kg
CL [33]: 1.3 mL/min/g
chromatographic logD [16]: 2.99
IC50 (Cytochrome P450 3A4 [34]): 8.4 µM
bioavailability [8]: 52%
IC50 (Cytochrome P450 2C9): 4.3 µM
chromatographic logD [18]: 0.98
EC50 [10]: 0.00316 µM
Structure (SMILES): Cc1c(-c2noc(-c3ccc(OC(C)C)c(C#N)c3)n2)ccc2c1CCN(C(CO)CO)C2
Activity (Rattus norvegicus [3]): 96%
Activity (Rattus norvegicus [26]): Active
inhibition at 30 µM (hERG (KCNH2)): 58%
IC50 [9]: 12.9 µM

half-life [1]: 0.6 h
chromatographic logD [2]: 2.49
EC50 [4]: 6.31 µM
pKa [5]: 7.28
clearance [6]: 87 mL/min/kg
Vd [7]: 3.7 L/kg
EC50 [10]: 0.00794 µM
Structure (SMILES): CC(C)Oc1ccc(-c2nc(-c3ccc4c(c3)CCN(C(CO)CO)C4)no2)cc1C#N
Activity (Rattus norvegicus [3]): 49%
IC50 [9]: 20 µM

half-life [1]: 3.5 h
chromatographic logD [2]: 2.41
EC50 [4]: > 31.6 µM
pKa [5]: 6.03
clearance [6]: 14 mL/min/kg
Vd [7]: 3.3 L/kg
EC50 [10]: 0.02 µM
Structure (SMILES): CC(C)Oc1ccc(-c2nc(-c3cccc4c3OCCN(C(CO)CO)C4)no2)cc1C#N
Activity (Rattus norvegicus [3]): 60%

half-life [1]: 5.3 h
chromatographic logD [2]: 2.74
EC50 [4]: 15.8 µM
pKa [5]: 7.81
clearance [6]: 21 mL/min/kg
Vd [7]: 7.6 L/kg
EC50 [10]: 0.02 µM
bioavailability [39]: 68%
Structure (SMILES): CC(C)Oc1ccc(-c2nc(-c3ccc4c(c3)CCN(C(CO)CO)CC4)no2)cc1C#N
Activity (Rattus norvegicus [3]): 88%
inhibition at 30 µM (hERG (KCNH2)): 59%
IC50 [9]: 17.8 µM

More lines, now with the values behind:

Structure (SMILES): CCCCCCCCc1ccc(CC[C@](N)(CO)COP(=O)(O)O)cc1 [FTY720-P]
Emax [11]: 99%
Emax [12]: 62%
EC50 [13]: 0.2 µM
Emax [14]: 7.2%
Emax [15]: 48%

Structure (SMILES): CC(C)Oc1ncc(-c2nc(-c3ccc4c(c3)CCNCC4)no2)cc1C#N
half-life [1]: 6.3 h
chromatographic logD [2]: 2.65
EC50 [4]: > 31.6 µM
pKa [5]: 9.69
clearance [6]: 20 mL/min/kg
Vd [7]: 9.7 L/kg
Fu (Plasma): 0.25%
chromatographic logD [16]: 3.73
bioavailability [8]: 70%
fraction unbound [17]: < 0.05
chromatographic logD [18]: 1.34
IC50 [9]: 3.16 µM
EC50 [10]: 0.02 µM

Structure (SMILES): Cc1c(-c2noc(-c3ccc(OC(C)C)c(C#N)c3)n2)ccc2c1CCN(CCC(=O)O)C2
EC50 [19]: 0.162 µM
Emax [11]: 94%
Emax [12]: 35%
Emax [35]: 1%
EC50 [13]: > 41.7 µM
EC50 [4]: > 31.6 µM
EC50 [36]: > 33.1 µM
Emax [14]: 77%
Emax [15]: 3%
EC50 [10]: 0.00562 µM
efflux ratio [37]: 6

Structure (SMILES): Cc1c(-c2noc(-c3ccc(OC(C)C)c(C#N)c3)n2)ccc2c1CCN(CC(=O)N[C@@H](C)CO)C2
half-life [1]: 2 h
Stability (Rattus norvegicus [38]): Unstable
chromatographic logD [2]: 3.04
Activity (Rattus norvegicus [3]): 90%
EC50 [4]: 25.1 µM
pKa [5]: 6.07
clearance [6]: 32 mL/min/kg
inhibition at 30 µM (hERG (KCNH2)): 43%
Vd [7]: 4.4 L/kg
bioavailability [8]: 38%
IC50 [9]: > 10 µM
EC50 [10]: 0.00126 µM
